Assay results taken from patent publication US12305226B2, “Barcoded protein array for multiplex single-molecule interaction profiling” (President and Fellows of Harvard College, priority 2014, dated 2025).

Target: ADRB2 (Homo sapiens, UniProt P07550)
Conditions: 100 μM compound, 5 nM barcoded β-arr2, GRK2
Procedure: A compound library could be screened in multi-well plates, and in each well, one compound was assayed with many barcoded GPCRs and a β-arrestin-2 (β-arr2) protein bearing a well-position-associated barcode (FIG. 3C). All the samples were pooled and deposited on one slide, and the interaction of a GPCR with a compound was detected by the increased GPCR polony co-localization with the corresponding β-arr2 polonies. […] The co-localization ratios were measured at 50 imaging positions on the array for statistical analysis.
A GPCR-β-arr2 binding assay was performed by mixing a ligand with ˜1 nM GPCR-nanodisc complexes in an assay buffer A2 (20 mM HEPES, pH 7.5, 50 mM KOAc, 2 mM EDTA and 5 mM MgCl2), followed by addition of 10 nM GRK2 (Life Technologies), 0.1 mM ATP, 10 nM G protein β1γ2 subunits (KeraFAST) and 5 nM barcoded β-arr2 in a total volume of 25 μL. Compounds were assayed in parallel using a multi-well plate, and the reactions were incubated at 30° C. for 30 min. Similarly as described above, GPCR-β-arr2 complexes were crosslinked and both crosslinked and free GPCRs were purified from the reactions with the anti-HA magnetic beads. Proteins were pooled and analyzed on a single array.

ADRB2, sequence (P07550 whole entry): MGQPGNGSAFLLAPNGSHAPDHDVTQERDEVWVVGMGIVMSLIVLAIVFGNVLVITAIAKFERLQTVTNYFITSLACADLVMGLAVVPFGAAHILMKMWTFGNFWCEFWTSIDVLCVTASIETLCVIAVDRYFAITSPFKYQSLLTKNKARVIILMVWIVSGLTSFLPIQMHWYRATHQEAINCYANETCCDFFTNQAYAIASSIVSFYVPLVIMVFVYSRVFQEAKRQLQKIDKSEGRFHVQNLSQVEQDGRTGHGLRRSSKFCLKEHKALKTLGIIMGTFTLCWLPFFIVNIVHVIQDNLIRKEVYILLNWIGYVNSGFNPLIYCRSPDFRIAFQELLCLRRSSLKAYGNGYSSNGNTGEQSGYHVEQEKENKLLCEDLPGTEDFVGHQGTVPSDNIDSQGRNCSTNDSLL

In the case of `CC(C)NCC(O)COc1cccc2[nH]ccc12` (stereo not shown) [pindolol], the “agonist type identified by polony co-localization ratios” value was “partial”.
